Results published in ChEMBL document CHEMBL5465560, “Selectivity Literature for EUbOPEN Chemogenomic Library” (2024).
Each block holds one molecule with its values, some of them ahead of it.

Legend:
[1] = target: T1, Serine/threonine-protein kinase Nek3 (Homo sapiens) (UniProt P51956); conditions: at 10 µM
T1 sequence (whole entry): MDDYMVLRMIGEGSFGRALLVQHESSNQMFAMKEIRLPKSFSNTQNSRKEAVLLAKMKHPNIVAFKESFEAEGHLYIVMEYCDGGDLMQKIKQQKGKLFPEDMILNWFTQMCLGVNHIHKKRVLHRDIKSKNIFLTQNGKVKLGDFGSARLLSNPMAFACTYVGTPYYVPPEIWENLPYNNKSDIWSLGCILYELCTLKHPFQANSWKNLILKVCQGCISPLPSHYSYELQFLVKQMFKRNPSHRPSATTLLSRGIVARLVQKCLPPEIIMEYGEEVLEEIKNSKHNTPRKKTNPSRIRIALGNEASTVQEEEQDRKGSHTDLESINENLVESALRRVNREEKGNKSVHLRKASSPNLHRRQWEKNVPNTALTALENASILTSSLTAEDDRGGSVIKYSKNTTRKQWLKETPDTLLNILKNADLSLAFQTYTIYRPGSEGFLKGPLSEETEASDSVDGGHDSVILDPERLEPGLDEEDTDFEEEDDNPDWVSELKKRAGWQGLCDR

[2] = target: Serine/threonine-protein kinase PLK3 (Homo sapiens, UniProt Q9H4B4)
Chain of Serine/threonine-protein kinase PLK3 (Q9H4B4 whole entry): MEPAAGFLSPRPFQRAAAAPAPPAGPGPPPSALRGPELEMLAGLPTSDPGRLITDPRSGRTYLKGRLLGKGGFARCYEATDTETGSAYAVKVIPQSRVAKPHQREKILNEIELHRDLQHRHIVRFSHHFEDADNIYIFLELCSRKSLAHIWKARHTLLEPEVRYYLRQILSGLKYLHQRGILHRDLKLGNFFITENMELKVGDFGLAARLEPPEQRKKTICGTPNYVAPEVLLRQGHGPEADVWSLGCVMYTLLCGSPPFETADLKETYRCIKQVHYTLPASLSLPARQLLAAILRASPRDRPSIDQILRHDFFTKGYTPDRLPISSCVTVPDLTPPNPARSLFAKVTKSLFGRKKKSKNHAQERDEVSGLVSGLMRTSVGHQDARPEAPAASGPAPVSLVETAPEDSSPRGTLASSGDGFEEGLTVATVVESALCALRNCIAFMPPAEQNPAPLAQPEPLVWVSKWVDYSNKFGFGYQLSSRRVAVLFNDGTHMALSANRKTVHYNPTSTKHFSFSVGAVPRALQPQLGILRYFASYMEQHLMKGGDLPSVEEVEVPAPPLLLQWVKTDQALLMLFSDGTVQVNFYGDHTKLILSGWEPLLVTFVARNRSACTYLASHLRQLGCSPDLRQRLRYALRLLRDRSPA

[3] = target: T2, Serine/threonine-protein kinase tousled-like 1 (Homo sapiens) (UniProt Q9UKI8); experiment: Selectivity interaction (KinomeScan (DiscoverX)) EUB0001079a TLK1; conditions: at 1 µM
T2 sequence (whole entry): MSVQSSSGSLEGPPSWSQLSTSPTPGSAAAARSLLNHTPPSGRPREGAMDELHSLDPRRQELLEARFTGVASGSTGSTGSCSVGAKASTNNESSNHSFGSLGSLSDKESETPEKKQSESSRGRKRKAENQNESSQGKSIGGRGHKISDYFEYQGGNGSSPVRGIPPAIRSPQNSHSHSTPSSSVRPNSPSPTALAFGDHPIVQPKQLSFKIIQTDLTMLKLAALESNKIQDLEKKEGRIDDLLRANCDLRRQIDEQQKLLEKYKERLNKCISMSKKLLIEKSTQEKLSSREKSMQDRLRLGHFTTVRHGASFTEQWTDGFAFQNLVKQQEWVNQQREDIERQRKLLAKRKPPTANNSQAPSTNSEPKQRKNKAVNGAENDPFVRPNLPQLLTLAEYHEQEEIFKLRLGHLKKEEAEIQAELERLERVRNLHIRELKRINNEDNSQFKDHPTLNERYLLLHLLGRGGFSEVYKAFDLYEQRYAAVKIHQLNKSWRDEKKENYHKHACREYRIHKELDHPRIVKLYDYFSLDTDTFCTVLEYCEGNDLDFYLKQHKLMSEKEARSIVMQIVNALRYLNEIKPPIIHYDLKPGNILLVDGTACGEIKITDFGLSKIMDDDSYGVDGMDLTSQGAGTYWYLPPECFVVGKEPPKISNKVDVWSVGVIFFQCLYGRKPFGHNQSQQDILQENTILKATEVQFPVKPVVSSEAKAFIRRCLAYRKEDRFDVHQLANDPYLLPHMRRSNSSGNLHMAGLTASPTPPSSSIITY

[4] = target: Mitogen-activated protein kinase 10 (Homo sapiens, UniProt P53779); experiment: Selectivity interaction (ProQinase) EUB0000171b MAPK10
Chain of Mitogen-activated protein kinase 10 (P53779 whole entry): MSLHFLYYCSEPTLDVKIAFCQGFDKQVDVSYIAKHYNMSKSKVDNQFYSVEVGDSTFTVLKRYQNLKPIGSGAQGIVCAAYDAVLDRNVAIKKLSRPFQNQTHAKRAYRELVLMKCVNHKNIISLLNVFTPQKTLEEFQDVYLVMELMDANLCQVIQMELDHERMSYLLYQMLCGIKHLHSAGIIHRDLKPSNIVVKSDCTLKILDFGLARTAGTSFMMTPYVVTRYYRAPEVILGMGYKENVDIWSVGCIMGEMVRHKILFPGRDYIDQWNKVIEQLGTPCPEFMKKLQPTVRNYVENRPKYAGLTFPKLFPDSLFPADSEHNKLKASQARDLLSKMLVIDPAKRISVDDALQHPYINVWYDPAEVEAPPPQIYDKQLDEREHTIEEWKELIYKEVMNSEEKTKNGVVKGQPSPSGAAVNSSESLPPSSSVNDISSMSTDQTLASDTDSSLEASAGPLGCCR

[5] = target: T3, Megakaryocyte-associated tyrosine-protein kinase (Homo sapiens) (UniProt P42679); experiment: Selectivity interaction (KinomeScan (DiscoverX)) EUB0000092b MATK; conditions: at 10 µM
T3 sequence (whole entry): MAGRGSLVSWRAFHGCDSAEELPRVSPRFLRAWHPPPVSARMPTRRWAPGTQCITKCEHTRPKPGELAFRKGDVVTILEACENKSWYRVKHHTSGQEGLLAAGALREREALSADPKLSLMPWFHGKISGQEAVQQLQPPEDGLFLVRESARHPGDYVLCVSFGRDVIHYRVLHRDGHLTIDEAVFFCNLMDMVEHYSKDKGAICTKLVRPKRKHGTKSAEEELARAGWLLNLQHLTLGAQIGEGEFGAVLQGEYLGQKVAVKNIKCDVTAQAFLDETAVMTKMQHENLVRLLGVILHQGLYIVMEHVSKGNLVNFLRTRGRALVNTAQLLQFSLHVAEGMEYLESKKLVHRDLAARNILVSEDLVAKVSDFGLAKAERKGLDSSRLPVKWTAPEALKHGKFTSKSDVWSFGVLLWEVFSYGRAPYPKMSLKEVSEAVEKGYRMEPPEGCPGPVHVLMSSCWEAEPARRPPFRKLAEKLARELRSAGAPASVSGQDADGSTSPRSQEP

[6] = target: Mitogen-activated protein kinase kinase kinase 20 (Homo sapiens) (UniProt Q9NYL2); experiment: Selectivity interaction (ActivX KiNativ screen (ex vivo kinase selectivity in human PBMCs)) EUB0001619a MAP3K20; assay type: cell-based; conditions: PBMC, at 1 µM
Chain of Mitogen-activated protein kinase kinase kinase 20 (Homo sapiens) (Q9NYL2 2-800 limits assumed): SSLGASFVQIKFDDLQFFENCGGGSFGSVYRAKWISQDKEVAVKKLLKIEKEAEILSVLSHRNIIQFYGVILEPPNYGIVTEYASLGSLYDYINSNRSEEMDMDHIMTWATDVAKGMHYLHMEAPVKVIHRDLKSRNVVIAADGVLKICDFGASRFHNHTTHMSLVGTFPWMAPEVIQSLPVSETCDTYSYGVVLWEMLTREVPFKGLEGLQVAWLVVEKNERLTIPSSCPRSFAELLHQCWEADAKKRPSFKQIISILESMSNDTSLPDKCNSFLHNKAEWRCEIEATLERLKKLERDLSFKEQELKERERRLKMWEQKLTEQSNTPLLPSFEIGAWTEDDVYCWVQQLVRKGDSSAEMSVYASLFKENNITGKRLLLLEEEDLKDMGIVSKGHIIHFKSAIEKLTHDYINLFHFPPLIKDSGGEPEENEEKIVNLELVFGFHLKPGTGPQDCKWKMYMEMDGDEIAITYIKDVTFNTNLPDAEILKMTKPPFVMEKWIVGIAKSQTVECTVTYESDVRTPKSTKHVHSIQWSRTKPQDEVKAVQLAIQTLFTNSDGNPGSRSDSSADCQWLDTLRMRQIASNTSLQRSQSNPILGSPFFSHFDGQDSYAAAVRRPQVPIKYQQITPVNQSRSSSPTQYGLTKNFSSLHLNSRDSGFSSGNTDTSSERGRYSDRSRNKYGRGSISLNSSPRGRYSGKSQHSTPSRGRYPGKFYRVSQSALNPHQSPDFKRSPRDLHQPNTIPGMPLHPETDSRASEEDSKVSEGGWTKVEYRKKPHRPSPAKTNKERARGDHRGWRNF

[7] = target: T4, Mitogen-activated protein kinase 15 (Homo sapiens) (UniProt Q8TD08); experiment: Selectivity interaction (KinomeScan (DiscoverX)) EUB0000607a MAPK15; conditions: at 10 µM
T4 sequence (whole entry): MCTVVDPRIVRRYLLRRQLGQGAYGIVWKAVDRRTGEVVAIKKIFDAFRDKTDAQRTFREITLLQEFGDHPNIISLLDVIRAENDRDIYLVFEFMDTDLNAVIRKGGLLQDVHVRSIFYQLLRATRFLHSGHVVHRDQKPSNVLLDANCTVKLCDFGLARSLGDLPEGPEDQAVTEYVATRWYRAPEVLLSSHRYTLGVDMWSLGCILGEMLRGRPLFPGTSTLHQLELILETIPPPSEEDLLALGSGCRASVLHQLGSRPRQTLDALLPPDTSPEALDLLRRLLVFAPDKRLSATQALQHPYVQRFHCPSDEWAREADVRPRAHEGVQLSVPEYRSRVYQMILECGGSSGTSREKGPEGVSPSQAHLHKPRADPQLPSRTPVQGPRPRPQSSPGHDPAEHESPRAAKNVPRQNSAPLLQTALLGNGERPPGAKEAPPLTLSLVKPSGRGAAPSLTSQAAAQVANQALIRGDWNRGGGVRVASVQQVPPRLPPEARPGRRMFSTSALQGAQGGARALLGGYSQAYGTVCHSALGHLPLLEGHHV

[8] = target: Transient receptor potential cation channel subfamily M member 6 (Homo sapiens) (UniProt Q9BX84); experiment: Selectivity interaction (KinomeScan (DiscoverX)) EUB0000607a TRPM6; conditions: at 10 µM
Chain of Transient receptor potential cation channel subfamily M member 6 (Homo sapiens) (Q9BX84 whole entry, canonical isoform): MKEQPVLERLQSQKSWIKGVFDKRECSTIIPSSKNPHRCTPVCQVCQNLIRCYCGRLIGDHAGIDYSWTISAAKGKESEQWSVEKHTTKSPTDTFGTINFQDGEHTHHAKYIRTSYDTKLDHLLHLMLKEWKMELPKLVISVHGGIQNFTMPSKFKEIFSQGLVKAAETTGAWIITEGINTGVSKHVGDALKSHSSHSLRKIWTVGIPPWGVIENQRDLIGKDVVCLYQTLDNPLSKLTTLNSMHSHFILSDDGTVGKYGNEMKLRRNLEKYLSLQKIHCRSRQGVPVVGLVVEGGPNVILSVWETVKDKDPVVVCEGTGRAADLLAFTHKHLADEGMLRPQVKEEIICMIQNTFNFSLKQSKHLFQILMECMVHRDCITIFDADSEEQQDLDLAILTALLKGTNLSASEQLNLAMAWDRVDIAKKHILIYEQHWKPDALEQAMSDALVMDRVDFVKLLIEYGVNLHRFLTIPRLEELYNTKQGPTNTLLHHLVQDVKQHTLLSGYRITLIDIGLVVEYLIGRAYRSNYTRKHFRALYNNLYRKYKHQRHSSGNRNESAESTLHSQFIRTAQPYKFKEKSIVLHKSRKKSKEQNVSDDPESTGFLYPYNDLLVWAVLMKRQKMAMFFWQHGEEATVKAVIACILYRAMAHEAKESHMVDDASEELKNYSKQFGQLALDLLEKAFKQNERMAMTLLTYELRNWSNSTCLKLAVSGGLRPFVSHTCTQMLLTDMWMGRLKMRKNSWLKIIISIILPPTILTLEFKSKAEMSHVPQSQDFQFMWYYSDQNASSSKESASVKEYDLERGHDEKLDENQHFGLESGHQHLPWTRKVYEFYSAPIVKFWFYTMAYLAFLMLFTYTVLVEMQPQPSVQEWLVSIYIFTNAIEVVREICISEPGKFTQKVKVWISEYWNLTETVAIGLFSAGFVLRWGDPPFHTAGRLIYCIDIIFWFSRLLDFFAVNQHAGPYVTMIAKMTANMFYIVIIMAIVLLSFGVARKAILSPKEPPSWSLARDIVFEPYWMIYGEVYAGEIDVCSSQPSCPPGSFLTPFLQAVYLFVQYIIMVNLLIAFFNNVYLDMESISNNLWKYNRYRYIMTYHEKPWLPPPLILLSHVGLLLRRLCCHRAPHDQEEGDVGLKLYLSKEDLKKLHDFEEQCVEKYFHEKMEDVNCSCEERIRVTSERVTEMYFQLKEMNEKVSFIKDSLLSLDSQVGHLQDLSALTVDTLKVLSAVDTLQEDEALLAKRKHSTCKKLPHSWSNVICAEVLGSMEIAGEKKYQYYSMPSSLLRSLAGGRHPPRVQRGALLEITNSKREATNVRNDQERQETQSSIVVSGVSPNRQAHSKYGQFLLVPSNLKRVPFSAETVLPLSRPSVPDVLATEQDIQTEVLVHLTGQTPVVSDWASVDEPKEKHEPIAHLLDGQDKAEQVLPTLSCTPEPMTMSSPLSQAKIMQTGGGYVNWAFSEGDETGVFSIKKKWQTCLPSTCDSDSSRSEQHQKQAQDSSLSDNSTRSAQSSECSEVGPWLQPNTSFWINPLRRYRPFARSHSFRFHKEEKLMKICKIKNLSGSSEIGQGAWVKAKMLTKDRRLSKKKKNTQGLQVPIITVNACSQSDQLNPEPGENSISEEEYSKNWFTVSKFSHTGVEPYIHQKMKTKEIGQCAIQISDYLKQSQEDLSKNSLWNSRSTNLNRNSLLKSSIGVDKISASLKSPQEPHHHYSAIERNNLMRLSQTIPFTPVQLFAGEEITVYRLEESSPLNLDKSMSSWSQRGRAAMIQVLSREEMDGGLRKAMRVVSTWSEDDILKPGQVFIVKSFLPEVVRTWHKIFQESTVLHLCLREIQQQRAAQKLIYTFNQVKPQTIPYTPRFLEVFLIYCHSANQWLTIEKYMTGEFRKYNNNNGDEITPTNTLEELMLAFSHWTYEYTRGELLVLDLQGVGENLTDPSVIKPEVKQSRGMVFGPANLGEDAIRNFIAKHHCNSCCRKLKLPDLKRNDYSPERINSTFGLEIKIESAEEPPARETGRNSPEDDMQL

[9] = target: Casein kinase I isoform epsilon (Homo sapiens, UniProt P49674); experiment: Selectivity interaction (KinomeScan (DiscoverX)) EUB0000666a CSNK1E; conditions: at 10 µM
Chain of Casein kinase I isoform epsilon (P49674 whole entry, looked up, canonical isoform): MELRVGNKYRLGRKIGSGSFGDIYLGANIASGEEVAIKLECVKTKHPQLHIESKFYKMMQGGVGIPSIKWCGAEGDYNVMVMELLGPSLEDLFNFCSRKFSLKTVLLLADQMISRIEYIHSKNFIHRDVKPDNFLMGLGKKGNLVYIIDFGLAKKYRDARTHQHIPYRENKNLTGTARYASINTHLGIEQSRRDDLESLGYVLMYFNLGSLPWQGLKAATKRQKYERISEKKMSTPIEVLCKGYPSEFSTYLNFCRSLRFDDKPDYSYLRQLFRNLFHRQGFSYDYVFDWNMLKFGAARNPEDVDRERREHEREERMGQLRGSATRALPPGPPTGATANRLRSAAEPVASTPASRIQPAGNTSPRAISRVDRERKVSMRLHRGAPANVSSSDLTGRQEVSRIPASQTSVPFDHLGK

Compound: Cc1cc([C@@H](C)Nc2ccccc2C(=O)O)c2nc(N3CCOCC3)cc(=O)n2c1 [AZD-6482]
% of control [1]: 100%

IC50 [2]: > 10 µM
Compound: CCc1cccc(CC)c1NC(=O)c1nn(C)c2c1CCc1cnc(Nc3ccc(C(=O)NC4CCN(C)CC4)cc3OC(F)(F)F)nc1-2

Compound: Nc1cnc(N2CCc3cc(S(=O)(=O)Nc4c(F)cc(Cl)cc4F)cc(N4CCCC4=O)c32)nc1 [TP-020n]
% of control [3]: 100%

% of control ([4]; at 1 µM): 3%
% of control ([4]; at 5 µM): 0%
Compound: C=CC(=O)Nc1cccc(C(=O)Nc2ccc(Nc3cc(-c4[nH]c(SC)nc4C)ccn3)cc2)c1

Compound: CCC(=O)N1CCN(c2ccc(-n3c(=O)ccc4cnc5ccc(-c6cnc7ccccc7c6)cc5c43)cc2C(F)(F)F)CC1
% of control [5]: 97%

Compound: N#Cc1cccc(-c2c[nH]c3ncnc(N4CCOCC4)c23)c1
% of inhibition [6]: -42%

Compound: CNC(=O)Nc1ccc(-c2nc(N3CC4CCC(C3)O4)c3cnn(C4CCC5(CC4)OCCO5)c3n2)cc1
% of control [7]: 25%
% of control [8]: 100%

Compound: O=C(NOC[C@H](O)CO)c1ccc(F)c(F)c1Nc1ccc(I)cc1F
% of control [9]: 100%
